# In US12139508B2, “Steroid derivative regulators, method for preparing the same, and uses thereof” (JIANGSU HANSOH PHARMACEUTICAL GROUP CO., LTD., priority 2018, dated 2024):
# Target: GABA-A receptor
# Experiment: 35S-TBPS binding assay (GABAA receptor binding ability test)
# Parameters: species or system Sprague-Dawley rat
# Conditions: rat cerebral cortex cell membrane, 5 μM GABA, 2 nM 35S-TBPS; read-out: 35S-TBPS bindng test: IC50 on inhibiting the TBPS binding activity
# Protocol: 1.2 Experimental Procedures 1.2.1 Extraction of Cerebral Cortex Cell Membrane:
# 1. The cerebral cortex of male Sprague-Dawley rat was isolated.
# 2. A pre-chilled 0.32 M sucrose solution (one tablet of protease inhibitor was added per 100 ml) was added to the cerebral cortex (the volume of sucrose solution was 10 times the volume of the cerebral cortex). The mixture was crushed with a 50 mL glass tissue homogenizer in batches and mixed well.
# 3. The mixture was centrifuged at 1500 g, 4° C. for 10 minutes, and the supernatant was collected.
# 4. The mixture was centrifuged at 20000 g, 4° C. for 30 minutes, and the supernatant was discarded.
# 5. The precipitate was resuspended with the pre-chilled phosphate buffer saline (PBS) (one tablet of protease inhibitor was added per 100 ml). An average of 4 ml of PBS was added per rat, and the mixture was mixed well by a glass tissue homogenizer.
# 6. The mixture was centrifuged at 10000 g, 4° C. for 10 minutes, and the supernatant was discarded.
# 7. Steps 5 and 6 were repeated three times.
# 8. Finally, the precipitate was resuspended with 4 volumes of PBS. The resulting solution was dispensed, frozen in liquid nitrogen, and stored at −80° C.
# 9. The protein concentration was measured by the bicinchoninic acid (BCA) method.
# 1.2.2 ^35S-TBPS Binding Assay
# 1. 230 μL of PBS was added to each well of a well plate with 1.1 ml volume.
# 2. 60 μL of the cerebral cortex cell membrane (5 μg/μL) solution was added to each well, and the mixture was mixed well.
# 3. The test compound (3 μL per well) was added, and the plate was incubated at 25° C. for 5 minutes. The DMSO concentration was 1%. The initial compound concentration was 1 μM, and a 3-fold dilution in gradient was carried out to obtain a total of 8 gradients and 2 replicates. 1% DMSO was used as a negative control, and 10 μM P026-2 was used as a positive control.
# 4. GABA was added at a final concentration of 5 μM, and incubated at 25° C. for 5 minutes. 1 mM GABA solution was formulated, and 1.5 μL of the solution was added to each well.
# 5. ^35S-TBPS was added at a final concentration of 2 nM. The concentration of isotope mother solution was 9.7 μM. After dilution with PBS for 100 times, 6 μL of the diluted isotope solution was added to each well.
# 6. The plate was incubated at 4° C. for 20 hours.
# 7. The FilterMate GF/C plate was pre-treated with 0.5% PEI, and incubated at 4° C. for 1 hour.
# 8. The FilterMate GF/C plate was washed with Universal Harvester twice, 50 ml PBS each time.
# 9. The reaction solution was transferred to the GF/C plate, and each well was washed 4 times with 900 μL of PBS.
# 10. The washed GF/C plate was placed at 55° C. and dried for 10 minutes.
# 11. 40 μL of scintillation solution was added to each well, and the CPM value was read with TopCount.
# 1.2.3 Experimental Data Processing Method:
# In the experiment, the CPM (counts per minute) value was read with TopCount. According to the readings of the High control (DMSO) and the Low control ([…] of the positive compound) experimental groups, the […] inhibition was calculated based on the following formula: % Inhibition=100×(CPMHigh control−CPMSample)/(CPMHigh control−CPMLow control)
# The IC50 of the compound was calculated according to the following 4-parameter nonlinear logic formula: Y=Bottom+(Top−Bottom)/(1+10^((Log IC50−X)*Hill Slope)),
# wherein: • X represents the log of compound concentration, • Y represents the 0 Inhibition.
# The effect of the compound of the present invention on the TBPS binding activity was determined by the above test, and the measured IC50 values are shown in Table 1.
row,SMILES,IC50 [nM]
1,"C[C@@]1(O)CC[C@H]2[C@H](CC[C@@H]3[C@@H]2CC[C@@]2(C)[C@H]3[C@@H]3C[C@@H]3[C@@H]2C(=O)Cn2cc3ccncc3n2)C1 [Example 41, 1-((2R,4aS,4bR,6aS,7S,7aS,8aR,8bR,8cR,10aR)-2-hydroxy-2,6a-dimethyloctadecahydrocyclopropa[4,5]cyclopenta[1,2-a]phenanthren-7-yl)-2-(2H-pyrazolo[3,4-c]pyridin-2-yl)ethan-1-one]",22.7
2,"C[C@@]1(O)CC[C@H]2[C@H](CC[C@@H]3[C@@H]2CC[C@@]2(C)[C@H]3[C@@H]3C[C@@H]3[C@@H]2C(=O)Cn2ncc3ccncc32)C1 [Example 42, 1-((2R,4aS,4bR,6aS,7S,7aS,8aR,8bR,8cR,10aR)-2-hydroxy-2,6a-dimethyloctadecahydrocyclopropa[4,5]cyclopenta[1,2-a]phenanthren-7-yl)-2-(1H-pyrazolo[3,4-c]pyridin-1-yl)ethan-1-one]",38.3
3,"C[C@@]1(O)CC[C@H]2[C@H](CC[C@@H]3[C@@H]2CC[C@@]2(C)[C@H]3[C@@H]3C[C@@H]3[C@@H]2C(=O)Cn2cc(F)cn2)C1 [Example 46, 2-(4-Fluoro-1H-pyrazol-1-yl)-1-((2R,4aS,4bR,6aS,7S,7aS,8aR,8bR,8cR,10aR)-2-hydroxy-2,6a-dimethyloctadecahydrocyclopropa[4,5]cyclopenta[1,2-a]phenanthren-7-yl)ethan-1-one]",28.7
4,"CCOC(=O)c1cnn(CC(=O)[C@H]2[C@H]3C[C@H]3[C@H]3[C@@H]4CC[C@@H]5C[C@](C)(O)CC[C@@H]5[C@H]4CC[C@@]32C)c1 [Example 51, Ethyl 1-(2-((2R,4aS,4bR,6aS,7S,7aS,8aR,8bR,8cR,10aR)-2-hydroxy-2,6a-dimethyloctadecahydrocyclopropa[4,5]cyclopenta[1,2-a]phenanthren-7-yl)-2-oxoethyl)-1H-pyrazole-4-carboxylate]",5
5,C[C@@]1(O)CC[C@H]2[C@H](CC[C@@H]3[C@@H]2CC[C@@]2(C)[C@H]3[C@@H]3C[C@@H]3[C@@H]2C(=O)Cn2cc(C(=O)N3CC(F)(F)C3)cn2)C1 [Example 52],65
6,"COc1ccc2nn(CC(=O)[C@H]3[C@H]4C[C@H]4[C@H]4[C@@H]5CC[C@@H]6C[C@](C)(O)CC[C@@H]6[C@H]5CC[C@@]43C)nc2c1 [Example 53, 1-((2R,4aS,4bR,6aS,7S,7aS,8aR,8bR,8cR,10aR)-2-Hydroxy-2,6a-dimethyloctadecahydrocyclopropa[4,5]cyclopenta[1,2-a]phenanthren-7-yl)-2-(5-methoxy-2H-benzo[d][1,2,3]triazol-2-yl)ethan-1-one]",12.3
7,"COc1ccc2nnn(CC(=O)[C@H]3[C@H]4C[C@H]4[C@H]4[C@@H]5CC[C@@H]6C[C@](C)(O)CC[C@@H]6[C@H]5CC[C@@]43C)c2c1 [Example 54A, 1-((2R,4aS,4bR,6aS,7S,7aS,8aR,8bR,8cR,10aR)-2-Hydroxy-2,6a-dimethyloctadecahydrocyclopropa[4,5]cyclopenta[1,2-a]phenanthren-7-yl)-2-(6-methoxy-1H-benzo[d][1,2,3]triazol-1-yl)ethan-1-one]",11.8
8,"COc1ccc2c(c1)nnn2CC(=O)[C@H]1[C@H]2C[C@H]2[C@H]2[C@@H]3CC[C@@H]4C[C@](C)(O)CC[C@@H]4[C@H]3CC[C@@]21C [Example 54B, 1-((2R,4aS,4bR,6aS,7S,7aS,8aR,8bR,8cR,10aR)-2-Hydroxy-2,6a-dimethyloctadecahydrocyclopropa[4,5]cyclopenta[1,2-a]phenanthren-7-yl)-2-(5-methoxy-1H-benzo[d][1,2,3]triazol-1-yl)ethan-1-one]",11.8
9,"Cc1nnn(CC(=O)[C@H]2C[C@@H](C)[C@H]3[C@@H]4CC[C@@H]5C[C@](C)(O)CC[C@@H]5[C@H]4CC[C@@]32C)n1 [Example 62, 1-((3R,5R,8R,9R,10S,13S,14S,15R,17S)-3-Hydroxy-3,13,15-trimethylhexadecahydro-1H-cyclopenta[a]phenanthren-17-yl)-2-(5-methyl-2H-tetrazol-2-yl)ethan-1-one]",5.4
10,"C[C@@H]1C[C@H](C(=O)COc2ccc(F)cc2F)[C@@]2(C)CC[C@H]3[C@@H](CC[C@@H]4C[C@](C)(O)CC[C@@H]43)[C@H]12 [Example 64, 2-(2,4-Difluorophenoxy)-1-((3R,5R,8R,9R,10S,13S,14S,15R,17S)-3-hydroxy-3,13,15-trimethylhexadecahydro-1H-cyclopenta[a]phenanthren-17-yl)ethan-1-one]",8.6
11,"C[C@@H]1C[C@H](C(=O)Cn2cc(C#N)c(C3CC3)n2)[C@@]2(C)CC[C@H]3[C@@H](CC[C@@H]4C[C@](C)(O)CC[C@@H]43)[C@H]12 [Example 69, 3-Cyclopropyl-1-(2-((3R,5R,8R,9R,10S,13S,14S,15R,17S)-3-hydroxy-3,13,15-trimethylhexadecahydro-1H-cyclopenta[a]phenanthren-17-yl)-2-oxoethyl)-1H-pyrazole-4-carbo nitrile]",7.6
12,"C[C@@H]1C[C@H](C(=O)Cn2cc(Cl)cn2)[C@@]2(C)CC[C@H]3[C@@H](CC[C@@H]4C[C@](C)(O)CC[C@@H]43)[C@H]12 [Example 91, 2-(4-Chloro-1H-pyrazol-1-yl)-1-((3R,5R,8R,9R,10S,13S,14S,15R,17S)-3-hydroxy-3,13,15-trimethylhexadecahydro-1H-cyclopenta[a]phenanthren-17-yl)ethan-1-one]",9.6
13,"C[C@@]1(O)CC[C@H]2[C@H](CC[C@@H]3[C@@H]2CC[C@@]2(C)[C@H]3[C@@H]3C[C@@H]3[C@@H]2C(=O)Cn2nc3ccc(F)cc3n2)C1 [Example 92, 2-(5-Fluoro-2H-benzo[d][1,2,3]triazol-2-yl)-1-((2R,4aS,4bR,6aS,7S,7aS,8aR,8bR,8cR,10aR)-2-hydroxy-2,6a-dimethyloctadecahydrocyclopropa[4,5]cyclopenta[1,2-a]phenanthren-7-yl)ethan-1-one]",10.8
14,"C[C@@]1(O)CC[C@H]2[C@H](CC[C@@H]3[C@@H]2CC[C@@]2(C)[C@H]3[C@@H]3C[C@@H]3[C@@H]2C(=O)Cn2nnc3cc(F)ccc32)C1 [Example 93A, 2-(5-Fluoro-1H-benzo[d][1,2,3]triazol-1-yl)-1-((2R,4aS,4bR,6aS,7S,7aS,8aR,8bR,8cR,10aR)-2-hydroxy-2,6a-dimethyloctadecahydrocyclopropa[4,5]cyclopenta[1,2-a]phenanthren-7-yl)ethan-1-one]",3
15,"C[C@@]1(O)CC[C@H]2[C@H](CC[C@@H]3[C@@H]2CC[C@@]2(C)[C@H]3[C@@H]3C[C@@H]3[C@@H]2C(=O)Cn2nnc3ccc(F)cc32)C1 [Example 93B, 2-(6-Fluoro-1H-benzo[d][1,2,3]triazol-1-yl)-1-((2R,4aS,4bR,6aS,7S,7aS,8aR,8bR,8cR,10aR)-2-hydroxy-2,6a-dimethyloctadecahydrocyclopropa[4,5]cyclopenta[1,2-a]phenanthren-7-yl)ethan-1-one]",3
16,"Cc1cnn(CC(=O)[C@H]2[C@H]3C[C@H]3[C@H]3[C@@H]4CC[C@@H]5C[C@](C)(O)CC[C@@H]5[C@H]4CC[C@@]32C)c1 [Example 95, 1-((2R,4aS,4bR,6aS,7S,7aS,8aR,8bR,8cR,10aR)-2-Hydroxy-2,6a-dimethyloctadecahydrocyclopropa[4,5]cyclopenta[1,2-a]phenanthren-7-yl)-2-(4-methyl-1H-pyrazol-1-yl)ethan-1-one]",34.1
17,"C[C@@]1(O)CC[C@H]2[C@H](CC[C@@H]3[C@@H]2CC[C@@]2(C)[C@H]3[C@@H]3C[C@@H]3[C@@H]2C(=O)CNc2ccc(F)cc2)C1 [Example 97, 2-((4-Fluorophenyl)amino)-1-((2R,4aS,4bR,6aS,7S,7aS,8aR,8bR,8cR,10aR)-2-hydroxy-2,6a-dimethyloctadecahydrocyclopropa[4,5]cyclopenta[1,2-a]phenanthren-7-yl)ethan-1-one]",30.2
